Reference: patent publication US20100035755A1, “METHOD OF CONTROLLING WEEDS IN A TURF GRASS BY USING SULFONYLUREA COMPOUNDS” (Moghu Research Center Ltd., priority 2008, published 2010)
Entries after “also recorded” stand apart in the source; their conditions may differ.

Assays:
[1] = tested on: Cyperus amuricus; test: Weed spectrum, greenhouse pot test; type: in vivo; conditions: two weeks after application
Outline: (§1)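 Seeds of each species were sown into pots filled with sandy loam and top soil (1:1) and kept in a greenhouse. Test chemical was sprayed immediately after sowing (pre-emergence) or after two weeks' growth to about three-leaf stage (post-emergence). Efficacy was judged visually after two weeks, from 0 (none) to 100.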

[2] = tested on: Kummerowia striata; test: Weed spectrum, greenhouse pot test; type: in vivo; conditions: two weeks after application
Outline: as §1

[3] = tested on: Poa annua; test: Weed spectrum, greenhouse pot test; type: in vivo; conditions: two weeks after application
Outline: as §1

[4] = tested on: Portulaca oleracea; test: Weed spectrum, greenhouse pot test; type: in vivo; conditions: two weeks after application
Outline: as §1

[5] = tested on: Trifolium repens; test: Weed spectrum, greenhouse pot test; type: in vivo; conditions: two weeks after application
Outline: as §1

[6] = tested on: Viola arvensis; test: Actual field condition test of Example 2 (turf grass field); type: in vivo; conditions: 50 g ai/ha
Method: The test chemical of the Example 2 was applied to a turf grass field, in which Viola arvensis as a representative hard-to-control perennial weed is thriving predominantly, to evaluate a weed control effect of the compound. The experiment was carried out from May to June, 2007 in the turf grass field within Korea Research Institute of Bioscience and Biotechnology (52, Ueun-dong, Yusong-gu, Daejon, South Korea). Fourteen days after the chemical application, the turf grass was cut once.

[7] = tested on: cool season turfgrass; test: Turf grass selectivity, summary for cool season turfgrass; type: in vivo; conditions: application amount as low as 3 g ai/ha
Source text: Turf mats of Zoysia grass, bentgrass, Kentucky bluegrass, or perennial rye grass known as cool season turfgrass or western grass were purchased and cut into a piece having 10 cm×20 cm size. Then, each piece was transplanted in a rectangular plastic pot (surface area of 300 cm^2) in which sandy loam and mixed top soil (Boo-Nong Top Soil No. 3, for horticultural use) are filled in 1:1 ratio. After the transplantation, the grasses were cut once a week to maintain the blade height at 0.5-1.0 cm and cultivated for one month in a green house of which temperature was kept at 25˜30° C. for daytime and 15˜25° C. for nighttime, respectively. Then, the ‘test chemical’ of the above Examples 1 and 2 or ‘control chemical’ was applied thereto in an amount of 400, 200, 100, 50, 25, 12, 6, 3 g ai/ha. As a “control chemical”, pyrazolsulfuron ethyl wettable agent (manufactured by Dongbu Fine Chemicals; herein after, referred to as ‘control chemical No. 1’) and flazasulfuron (manufactured by Dongbu HiTek; herein after, referred to as ‘control chemical No. 2’), both sulfonylurea herbicides for a turf grass, were used. Application was carried out by using a track sprayer (R&D Sprayer, USA) equipped with Teejet 8002 nozzle (Spraying Systems Co., USA), and the application amount was adjusted to 2,000 L/ha, which is a typical application amount for a golf course in Korea. […]

[8] = tested on: warm season turf grass; conditions: background statement; zoysiagrass, Burmudagrass; cited from earlier work
[9] = tested on: cool season turf grass; conditions: background statement; creeping bentgrass, Kentucky bluegrass; cited from earlier work

SMILES: COc1cc(OC)nc(NC(=O)NS(=O)(=O)c2ncccc2C(F)(F)F)n1 [Control chemical No. 2, Flazasulfuron, reference compound]
- efficacy (0-100 scale) ([1]; Post-emergence, 12 g ai/ha): 60
- efficacy (0-100 scale) ([1]; Post-emergence, 25 g ai/ha): 70
- efficacy (0-100 scale) ([1]; Post-emergence, 50 g ai/ha): 80
- efficacy (0-100 scale) ([1]; Post-emergence, 100 g ai/ha): 80
- efficacy (0-100 scale) ([1]; Pre-emergence, 12 g ai/ha): 40
- efficacy (0-100 scale) ([1]; Pre-emergence, 25 g ai/ha): 70
- efficacy (0-100 scale) ([1]; Pre-emergence, 50 g ai/ha): 80
- efficacy (0-100 scale) ([1]; Pre-emergence, 100 g ai/ha): 100
- efficacy (0-100 scale) ([2]; Post-emergence, 12 g ai/ha): 80
- efficacy (0-100 scale) ([2]; Post-emergence, 25 g ai/ha): 90
- efficacy (0-100 scale) ([2]; Post-emergence, 50 g ai/ha): 100
- efficacy (0-100 scale) ([2]; Post-emergence, 100 g ai/ha): 100
- efficacy (0-100 scale) ([2]; Pre-emergence, 12 g ai/ha): 80
- efficacy (0-100 scale) ([2]; Pre-emergence, 25 g ai/ha): 90
- efficacy (0-100 scale) ([2]; Pre-emergence, 50 g ai/ha): 100
- efficacy (0-100 scale) ([2]; Pre-emergence, 100 g ai/ha): 100
- efficacy (0-100 scale) ([3]; Post-emergence, 12 g ai/ha): 40
- efficacy (0-100 scale) ([3]; Post-emergence, 25 g ai/ha): 70
- efficacy (0-100 scale) ([3]; Post-emergence, 50 g ai/ha): 80
- efficacy (0-100 scale) ([3]; Post-emergence, 100 g ai/ha): 90
- efficacy (0-100 scale) ([3]; Pre-emergence, 12 g ai/ha): 40
- efficacy (0-100 scale) ([3]; Pre-emergence, 25 g ai/ha): 70
- efficacy (0-100 scale) ([3]; Pre-emergence, 50 g ai/ha): 100
- efficacy (0-100 scale) ([3]; Pre-emergence, 100 g ai/ha): 100
- efficacy (0-100 scale) ([4]; Post-emergence, 12 g ai/ha): 80
- efficacy (0-100 scale) ([4]; Post-emergence, 25 g ai/ha): 90
- efficacy (0-100 scale) ([4]; Post-emergence, 50 g ai/ha): 90
- efficacy (0-100 scale) ([4]; Post-emergence, 100 g ai/ha): 100
- efficacy (0-100 scale) ([4]; Pre-emergence, 12 g ai/ha): 40
- efficacy (0-100 scale) ([4]; Pre-emergence, 25 g ai/ha): 60
- efficacy (0-100 scale) ([4]; Pre-emergence, 50 g ai/ha): 90
- efficacy (0-100 scale) ([4]; Pre-emergence, 100 g ai/ha): 100
- efficacy (0-100 scale) ([5]; Post-emergence, 12 g ai/ha): 80
- efficacy (0-100 scale) ([5]; Post-emergence, 25 g ai/ha): 100
- efficacy (0-100 scale) ([5]; Post-emergence, 50 g ai/ha): 100
- efficacy (0-100 scale) ([5]; Post-emergence, 100 g ai/ha): 100
- efficacy (0-100 scale) ([5]; Pre-emergence, 12 g ai/ha): 70
- efficacy (0-100 scale) ([5]; Pre-emergence, 25 g ai/ha): 80
- efficacy (0-100 scale) ([5]; Pre-emergence, 50 g ai/ha): 100
- efficacy (0-100 scale) ([5]; Pre-emergence, 100 g ai/ha): 100
- Effect on Viola arvensis ([6]; After 7 days): 20
- Effect on Viola arvensis ([6]; After 14 days): 50
- phytotoxicity to cool season turfgrass [7]: complete withering; also recorded: completely withered
- safety to warm season turf grass [8]: have a safety
- safety to cool season turf grass [9]: no safety
